Results on one substance are retold here after patent publication US20040002444A1, “Polyphosphate-water soluble collagen complexes and process for preparation thereof” (Toshikazu SHIBA, priority 2002, published 2004).

Experiment [1] deals with alveolar bone of rats (artificial periodontal pockets). Nature of the experiment: Regeneration of the periodontal tissue in rats (Example 3). Format: in vivo, Wister male rats. The note with it: approx. 0.1 ml injected into gingival crevices everyday, up to 3 weeks; light microscope. As to the method:
Next, to confirm the effect of the prepared polyphosphate-collagen complex in regenerating the periodontal tissue, an experiment for the regeneration of the periodontal tissue was performed using rats. Wister male rats (8 weeks old; 18 rats in total) were anesthetized. Then, using a ½ round bar, approximately 2 mm portions were removed from the buccal alveolar bone crest of the mandibular first and second molars, and artificial periodontal pockets (gingival crevices) were formed. In the treated group (9 rats), approximately 0.1 ml of the polyphosphate-collagen complexes prepared in Example 2 was injected using a syringe into the thus formed gingival crevices. In the comparison group (9 rats), only the collagen was injected. The injection procedure was performed everyday from the day following the operation to prepare the gingival crevice, and continued for 3 weeks at the longest.
The rats treated for a certain period were euthanized by inhalation anesthesia (enflurane), and the tissues were fixed by perfusion fixation. Perfusion fixation was performed by letting 300 ml of physiological saline and then 10% neutral buffered formalin solution (pH 7.4, 500 ml) to flow through the blood vessel. […] In addition, the area of the regenerated alveolar bone was measured as the area of bone formation by calculating the sum of the bone areas in the sections with image processing.

Experiment [2] has the same test system. Nature of the experiment: Regeneration of the periodontal tissue in rats, influence of polyphosphate chain length (Example 4). Format: in vivo, Wister male rats. The note with it: measured at 15 days after operation; for area of the regenerated alveolar bone: approx. 0.1 ml injected into gingival crevices once a day for 14 days. As to the method: Next, an experiment of the regeneration of the periodontal tissue in rats was performed using the 3 prepared types of polyphosphate-collagen complexes. In a manner similar to Example 3, Wister male rats (8 weeks old) were anesthetized. Then, using a ½ round bar, approximately 2 mm portions were removed from the buccal alveolar bone crest of the mandibular first and second molars, and artificial periodontal pockets (gingival crevices) were formed. In the treated group, approximately 0.1 ml of either one type of the above polyphosphate-collagen complexes was injected using a syringe into the thus formed gingival crevices. The treated groups were: treated group 1 that was treated with the polyphosphate-collagen complex containing polyphosphates having an average chain length of 15; treated group 2 that was treated with the polyphosphate-collagen complex containing polyphosphates having an average chain length of 35; and treated group 3 that was treated with the polyphosphate-collagen complex containing polyphosphates having an average chain length of 75. The comparison groups were: comparison group 1 that was treated only with collagen and comparison group 2 that was treated with a mixed solution of a sodium phosphate buffer and collagen. Injection (approximately 0.1 ml) into the gingival crevices of each group was performed similarly to that for the treated groups. For all the groups, 3 rats were used per group. In addition, the injection was performed once a day and everyday from the day following the operation to prepare the gingival crevice, and was continued for 14 days.
After the above treatment, at 15 days after the operation to prepare the gingival crevice, tissue sections (samples) were prepared in a manner similar to that in Example 3 from the rats of each group, and then the area of the formed alveolar bone was measured. The areas of the regenerated alveolar bones as measured for rat individuals included in 3 treated groups and 2 comparison groups are as shown in Table 1.

As to collagen [Comparison group 1], the “staining of the tissues: regeneration of alveolar bone (FIG. 2)” value in experiment [1] is on record as “no increase was observed in the alveolar bone”. Moreover, the “area of the regenerated alveolar bone” value in experiment [2] (Individual 1) was 0.5422 mm^2; in experiment [2] (Individual 2) it was 0.5909 mm^2; in experiment [2] (Individual 3) it was 0.6569 mm^2. Moreover, the “area of the regenerated alveolar bone, Average” value in experiment [2] (average of 3 rats per group, approx. 0.1 ml injected once a day for 14 days) came out at 0.5967 mm^2.
